Measured values: patent publication US12187709B2 (Genentech, Inc., priority 2021, dated 2025)

Legend:
Cbl-b = Cbl-b (Homo sapiens (Human), UniProt Q13191); assay: Cbl-b LCK Ub TR-FRET assay (Cbl-b Lck HTRF); format: biochemical; conditions: for IC50: Cbl-b LCK Ub TR-FRET; for (fold-selectivity) Cbl-b and C-Cbl Selectivity / fold-selectivity (Cbl-b over C-cbl): ratio C-cbl Lck HTRF IC50 / Cbl-b Lck HTRF IC50
Procedure, shortened: (§1)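 Signal is read once the detection mix has stood 20 min at ambient temperature. Curves are anchored by DMSO as maximum and by omission of LCK as minimum.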

c-Cbl = c-Cbl (Homo sapiens (Human), UniProt P22681); assay: C-Cbl LCK Ub TR-FRET assay (C-cbl Lck HTRF); format: biochemical
Chain of c-Cbl (P22681 47-435): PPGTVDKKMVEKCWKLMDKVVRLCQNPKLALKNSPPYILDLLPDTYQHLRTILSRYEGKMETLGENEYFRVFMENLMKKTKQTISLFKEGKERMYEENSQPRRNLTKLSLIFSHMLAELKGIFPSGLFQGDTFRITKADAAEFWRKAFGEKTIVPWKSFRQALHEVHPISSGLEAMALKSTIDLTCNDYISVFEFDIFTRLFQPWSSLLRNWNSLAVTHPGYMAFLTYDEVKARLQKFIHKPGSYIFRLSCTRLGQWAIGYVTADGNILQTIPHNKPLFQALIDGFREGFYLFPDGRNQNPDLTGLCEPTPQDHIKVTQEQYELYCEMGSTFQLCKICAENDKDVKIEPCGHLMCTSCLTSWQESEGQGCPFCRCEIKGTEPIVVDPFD
Procedure, shortened: as §1

Chain of Cbl-b (Q13191 40-426): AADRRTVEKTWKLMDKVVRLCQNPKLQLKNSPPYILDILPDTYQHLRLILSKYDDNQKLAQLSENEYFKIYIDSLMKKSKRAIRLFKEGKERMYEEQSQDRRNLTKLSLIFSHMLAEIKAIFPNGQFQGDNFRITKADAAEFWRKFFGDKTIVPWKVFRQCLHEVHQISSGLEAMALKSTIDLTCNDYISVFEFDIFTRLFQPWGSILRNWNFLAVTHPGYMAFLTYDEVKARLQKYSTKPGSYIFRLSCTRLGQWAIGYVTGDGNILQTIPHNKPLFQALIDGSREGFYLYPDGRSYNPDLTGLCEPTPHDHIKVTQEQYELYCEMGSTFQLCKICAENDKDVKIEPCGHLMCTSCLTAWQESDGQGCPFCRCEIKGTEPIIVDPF

Structure (SMILES) | IC50 (Cbl-b; Example 121) [µM] | (fold-selectivity) Cbl-b and C-Cbl Selectivity (Cbl-b) [x] | IC50 (c-Cbl) [µM] | IC50 (Cbl-b) [µM] | fold-selectivity (Cbl-b over C-cbl) (Cbl-b)
CO[C@H]1C[C@](c2cccc(N3Cc4c(cc(CN5CCCCC5)cc4C(F)(F)F)C3=O)c2)(c2nncn2C)C1 [Compound 420, 2-(3-((1r,3r)-3-methoxy-1-(4-methyl-4H-1,2,4-triazol-3-yl)cyclobutyl)phenyl)-6-(piperidin-1-ylmethyl)-4-(trifluoromethyl)isoindolin-1-one] | 0.1 | 7.2 | 0.72 |  | 
Cn1cnnc1C1(c2cccc(N3Cc4c(cc(CNC5(C)CCC5)cc4C(F)(F)F)C3=O)c2)CC(C)(C)C1 [Compound 39, 2-(3-(3,3-dimethyl-1-(4-methyl-4H-1,2,4-triazol-3-yl)cyclobutyl)phenyl)-6-(((1-methylcyclobutyl)amino)methyl)-4-(trifluoromethyl)-isoindolin-1-one] |  |  | 0.017 | 0.0072 | (2.4x)
Cn1cnnc1[C@](O)(c1cccc(N2Cc3c(cc(CNC4(C)CCC4)cc3C(F)(F)F)C2=O)c1)C1CCC1 (single isomer, unassigned) [Compound 1] |  |  | 14.1 | 8.3 | (1.7x)
CC[C@H](c1cccc(N2Cc3c(Cl)cc(CNC4(C)CCC4)cc3C2=O)c1)c1nncn1C (single isomer, unassigned) [Compound 358] |  |  | 0.48 | 0.14 | 3.5x
C[C@@H](NC1(C)CCC1)c1cc2c(c(C(F)(F)F)c1)CN(c1cccc([C@@H](c3nncn3C)C3COC3)c1)C2=O [Compound 443, 2-(3-((S)-(4-methyl-4H-1,2,4-triazol-3-yl)(oxetan-3-yl)methyl)phenyl)-6-((R)-1-((1-methylcyclobutyl)amino)ethyl)-4-(trifluoromethyl)isoindolin-1-one] | 3.3 | 1.7 | 5.7 |  | 
CO[C@H]1C[C@@](c2cc(OC3CCCC3)nc(N3Cc4c(cc(CNC5(C)CCC5)cc4C(F)(F)F)C3=O)c2)(c2nncn2C)C1 [Compound 78, 2-(6-(cyclopentyloxy)-4-((1S,3S)-3-methoxy-1-(4-methyl-4H-1,2,4-triazol-3-yl)cyclobutyl)pyriidn-2-yl)-6-(((1-methylcyclobutyl)amino)methyl)-4-(trifluoromethyl)isoindolin-1-one] |  |  | 0.07 | 0.014 | (5.0x)
Cn1cnnc1[C@](O)(c1ccccc1)c1cccc(N2Cc3c(cc(CNC4(C)CCC4)cc3C(F)(F)F)C2=O)c1 (single isomer, unassigned) [Compound 154] |  |  | 20 | ≥ 20 | 1.0x
Cn1cnnc1[C@H](OC1CC1)c1cccc(N2Cc3c(cc(CNC4(C)CCC4)cc3C(F)(F)F)C2=O)c1 (single isomer, unassigned) [Compound 45] |  |  | 0.41 | 0.29 | (1.4x)
CO[C@H]1C[C@](O)(C(c2cccc(N3Cc4c(cc(CNC5(C)CCC5)cc4C(F)(F)F)C3=O)c2)c2nncn2C)C1 (single isomer, unassigned) [Compound 368] |  |  | 6.4 | 4 | 1.6x
Cn1nnnc1[C@H](c1cccc(N2Cc3c(cc(CNC4(C)CCC4)cc3C(F)(F)F)C2=O)c1)C1COC1 (single isomer, unassigned) [Compound 349] |  |  | 20 | ≥ 20 | 1x
CC(C)[C@H]1CN(C)CCN1Cc1cc2c(c(C(F)(F)F)c1)CN(c1cccc(C3(c4nncn4C)CC4(COC4)C3)c1)C2=O [Compound 41, (S)-6-((2-isopropyl-4-methylpiperazin-1-yl)methyl)-2-(3-(6-(4-methyl-4H-1,2,4-triazol-3-yl)-2-oxaspiro[3.3]heptan-6-yl)phenyl)-4-(trifluoromethyl)isoindolin-1-one] |  |  | 0.059 | 0.021 | (2.8x)
Cn1cnnc1[C@](F)(c1ccccc1)c1cccc(N2Cc3c(cc(CNC4(C)CCC4)cc3C(F)(F)F)C2=O)c1 (single isomer, unassigned) [Compound 156] |  |  | 18 | 7.7 | 2.4x
CC[C@](O)(c1cccc(N2Cc3c(cc(CNC4(C)CCC4)cc3C(F)(F)F)C2=O)c1)c1nncn1C (single isomer, unassigned) [Compound 391] |  |  | 0.86 | 0.85 | 1.0x
CO[C@H]1C[C@](c2cccc(N3Cc4c(cc(CN5CCC6(CC5)CC(O)C6)cc4C(F)(F)F)C3=O)c2)(c2nncn2C)C1 [Compound 424, 6-((2-hydroxy-7-azaspiro[3.5]nonan-7-yl)methyl)-2-(3-((1r,3r)-3-methoxy-1-(4-methyl-4H-1,2,4-triazol-3-yl)cyclobutyl)phenyl)-4-(trifluoromethyl)isoindolin-1-one] | 0.23 | 6.5 | 1.5 |  | 
CC(=O)N1CC([C@H](c2cccc(N3Cc4c(cc(CNC5(C)CCC5)cc4C(F)(F)F)C3=O)c2)c2nncn2C)C1 (single isomer, unassigned) [Compound 401] |  |  | 13 | 8.5 | 1.6 x
Cn1cnnc1[C@@H](c1cccc(N2Cc3c(cc(CNC4(C)CCC4)cc3C(F)(F)F)C2=O)c1)N1CC(F)(F)C1 (single isomer, unassigned) [Compound 57] |  |  | 19 | 10 | (1.9x)
Cn1cnnc1[C@@H](c1cccc(N2Cc3c(cc(CNC4(C)CCC4)cc3C(F)(F)F)C2=O)c1)[C@@H]1CCOC1 [Compound 168, 2-(3-((R)-(4-methyl-4H-1,2,4-triazol-3-yl)((S)-tetrahydrofuran-3-yl)methyl)phenyl)-6-(((1-methylcyclobutyl)amino)methyl)-4-(trifluoromethyl)isoindolin-1-one] |  |  | 0.034 | 0.023 | 1.5x
CC(=O)N(C)[C@@H](c1cccc(N2Cc3c(cc(CNC4(C)CCC4)cc3C(F)(F)F)C2=O)c1)c1nncn1C (single isomer, unassigned) [Compound 400] |  |  | 20 | ≥ 20 | 1.0x
Cn1cnnc1[C@@H](c1cccc(N2Cc3c(cc(CNC4(C)CCC4)cc3C(F)(F)F)C2=O)c1)C1CCS(=O)(=O)CC1 [Compound 299, (R)-2-(3-((1,1-dioxidotetrahydro-2H-thiopyran-4-yl)(4-methyl-4H-1,2,4-triazol-3-yl)methyl)phenyl)-6-(((1-methylcyclobutyl)amino)methyl)-4-(trifluoromethyl)isoindolin-1-one] |  |  | 3.8 | 2.5 | 1.5x

Further lines, results first:

IC50 (Cbl-b; Example 121) [µM] | (fold-selectivity) Cbl-b and C-Cbl Selectivity (Cbl-b) [x] | IC50 (c-Cbl) [µM] | IC50 (Cbl-b) [µM] | fold-selectivity (Cbl-b over C-cbl) (Cbl-b) | Structure (SMILES)
9.9 | 2.0 | 20 |  |  | C[C@@H](NC1(C)CCC1)c1cc2c(c(C(F)F)c1)CN(c1cccc([C@@H](c3nncn3C)C3COC3)c1)C2=O (single isomer, unassigned) [Compound 406]
 |  | ≥ 20 | 5.1 | (3.9x) | CC(C)[C@H]1CN(C)CCN1Cc1cc2c(c(C(F)(F)F)c1)CN(c1cccc([C@H](c3nncn3C)C3COC3)c1)C2=O (single isomer, unassigned) [Compound 11]
 |  | 20 | 9.1 | 2.1x | Cn1cnnc1[C@]1(c2cccc(N3Cc4c(cc(CNC5(C)CCC5)cc4C(F)(F)F)C3=O)c2)C[C@H]([S@+](C)[O-])C1 (single isomer, unassigned) [Compound 162]
 |  | 20 | 6.8 | 2.0x | CC[C@H](NC1(C)CCC1)c1cc2c(c(C(F)(F)F)c1)CN(c1cccc([C@@H](c3nncn3C)C3COC3)c1)C2=O [Compound 315, 2-(3-((S)-(4-methyl-4H-1,2,4-triazol-3-yl)(oxetan-3-yl)methyl)phenyl)-6-((S)-1-((1-methylcyclobutyl)amino)propyl)-4-(trifluoromethyl)isoindolin-1-one]
≥ 20 | 1.0 | 20 |  |  | Cn1cnnc1[C@](O)(c1ccccc1)c1cccc(N2Cc3c(Cl)cc(CNC4(C)CCC4)cc3C2=O)c1 (single isomer, unassigned) [Compound 411]
 |  | 20 | 15 | 1.4x | Cn1cnnc1C1(c2cccc(N3Cc4c(cc(CNC5(C)CCC5)cc4C(F)(F)F)C3=O)c2)CC2(CN(C3COC3)C2)C1 [Compound 199, 2-(3-(6-(4-methyl-4H-1,2,4-triazol-3-yl)-2-(oxetan-3-yl)-2-azaspiro[3.3]heptan-6-yl)phenyl)-6-(((1-methylcyclobutyl)amino)methyl)-4-(trifluoromethyl)isoindolin-1-one]
 |  | 3.7 | 0.51 | 7.3x | C[C@@H](NC1(C)CCC1)c1cc2c(c(C(F)(F)F)c1)CN(c1cccc(C(c3nncn3C)C3COC3)c1)C2=O (stereo partly drawn) [Compound 284, 2-(3-((4-methyl-4H-1,2,4-triazol-3-yl)(oxetan-3-yl)methyl)phenyl)-6-((R)-1-((1-methylcyclobutyl)amino)ethyl)-4-(trifluoromethyl)isoindolin-1-one]
 |  | 20 | 3.8 | (5.3x) | Cn1cnnc1[C@H](c1cccc(N2Cc3c(cc(CNC4(C)CCC4)cc3C(F)(F)F)C2=O)c1)N1CCC1 (single isomer, unassigned) [Compound 32]
 |  | 0.029 | 0.013 | 2.2x | Cn1cnnc1C1(c2cccc(N3Cc4c(cc(CNC5(C)CCC5)cc4C(F)(F)F)C3=O)c2)CC2(CC(=O)C2)C1 [Compound 92, 2-(3-(2-(4-methyl-4H-1,2,4-triazol-3-yl)-6-oxospiro[3.3]heptan-2-yl)phenyl)-6-(((1-methylcyclobutyl)amino)methyl)-4-(trifluoromethyl)isoindolin-1-one]
